{
  "source": "patent US20230381312A1",
  "about": "“REDIRECTING GLUCOSE METABOLISM TO LIMIT STRESS AND IMPROVE ADOPTIVE CELL THERAPY” (University of Pittsburgh - Of the Commonwealth System of …, priority 2020, published 2023)",
  "key": {"[1]": {"test_system": "tumor-infiltrating T cells", "test": "Metabolic flux rate experiment (OCR) in tumor-infiltrating T cells of melanoma patients expanded in vitro with DCA", "format": "cell-based, human", "settings": "patient TIL expanded 10 days, FIG. 7B", "from_the_text": "Patient samples and PBMC samples were obtained from melanoma patients who were enrolled on institutional review board approved protocols. Cells from 5 different patients were used. PBMC were cryopreserved in 90% FBS plus 10% DMSO (Sigma, St. Louis. MO).\n(§1) This method included obtaining a sample of tumor from a patient suffering from metastatic melanoma, making a single cell suspension, and expanding the T cells in a cell culture medium with IL-2 present in a concentration of 6000 IU/mL+/−DCA in addition to anti-CD3/anti-CD28 antibodies for a period of 10 days.\nMetabolic flux rate experiments measuring OCR were also performed as described above."}, "T cells [2]": {"test_system": "T cells", "test": "Metabolic flux rate experiments (OCR, ECAR) in T cells expanded in DCA", "format": "cell-based, mouse", "from_the_text": "The methods provided herein can include measurement of plural extracellular solutes and adjacent living cells disposed, for example, in a well of a multiwell microplate.\nThis apparatus can include an array of submersible sensors that enable rapid coordinated sensor stabilization within multiple cell-containing wells. It also includes compound storage and delivery apparatus, a pneumatic multiplexer, a structure for adding fluids to subsets or all of the multiple wells simultaneously, and a sensor structure permitting non-destructive measurement of the effect of addition of exogenous fluid to the respective wells, in combination with the ability to make and repeat measurements rapidly. Furthermore, the apparatus is designed to exploit a cartridge structure which permits repeated use of the apparatus for disparate cellular assays without requiring intermediate cleaning, and while eliminating the possibility of cross contamination between tests.\nIn use, the first step in a measurement sequence with the Seahorse XF instrument is the exchange of cell media to a type containing nearly no bicarbonate or other pH buffer in order to maximize the pH change caused by cellular proton flux.\nNext, measurement probes fitted with an optical oxygen and pH sensor were placed in each well, and were raised and lowered to mix the cell media for approximately five minutes. Third, each probe was lowered into the cell media to stop at a precise point above the cells such that approximately 25 μL of media was sequestered in a way that impeded the diffusion of oxygen molecules and protons to the larger volume of media in the well. Fourth, a series of optical measurements of the two sensors on the probe bottom (in contact with the small volume of media above the cells) were made at intervals of 8 seconds and for a period of five minutes. Typically, the dissolved oxygen level decreased by approximately 10% and the pH decreased by approximately 0.1 units. A simple linear fit to the rate of change of oxygen and pH were used to determine the OCR and ECAR for each well. […]"}, "T cells [3]": {"test_system": "T cells", "test": "T cell survival and BCL2 expression after 10 days expansion in DCA (CellTrace Violet, flow cytometry)", "format": "cell-based", "protocol": "The impact of a PDHK1 inhibitor (DCA) on T cell survival was assessed by measuring expression of anti-apoptotic BLC2. […] The T cells were activated and expanded as described in Example 1, except the labeled PBMCs were cultured in media containing IL-2 for 48 hours, and the T cells were cultured in DCA or control conditions for 10 days. Experimental expansion conditions included culturing in 5 mM DCA or 10 mM DCA. Control conditions included 5 mM of glycolysis inhibitor 2-deoxyglucose (2DG), low glucose media, or PBS. The impact of DCA on T cell survival was assayed by evaluating CellTrace® Violet dilution with flow cytometry. Fresh X-VIVO®-15-based culture medium containing IL-2 and DCA or 2DG was added to the T cell cultures every two to three days for a total of ten days to permit outgrowth and expansion of the T cells.\nA pairwise T test was performed on all day ten cultures (each concentration of DCA was compared to 0 mM DCA: *p<0.05, **p<0.01)."}, "[4]": {"test_system": "tumor-infiltrating T cells", "test": "Signaling analysis of patient tumor-infiltrating T cells expanded with DCA (PD-1, Tim-3, IFN-gamma, TNF-alpha)", "format": "cell-based, human", "settings": "patient TIL expanded with DCA, FIG. 7C", "protocol": "as §1\nSignaling analysis were performed as described above."}, "[5]": {"test_system": "human anti-CD19 CAR-T cells", "test": "Metabolic flux rate experiments in human anti-CD19 CAR-T cells generated with DCA", "format": "cell-based", "settings": "5 mM DCA relative to hCD19 CAR, FIG. 8B", "protocol": "On the first day (“day 0”), 1) fresh or frozen peripheral blood mononuclear (PBMCs) are seeded at 10×10^6 cells/10 mL in a T25 culture flask in T Cell Growth Media (TCGM), and 2) T cell stimulation cocktail is added to a final concentration of 50 ng/mL anti-CD3, 50 ng/mL anti-CD28, and 250 IU/mL IL-2. […] On day 3, 5) lentiviral supernatant is removed, and 6) cells are fed with new media to a concentration of 3×10^5 cells/mL and 5 mM DCA. On day 4, 7) a transfer of 5×10^6 cells/condition is made to G-Rex® 6 multi-well plates, filling TCGM+5 mM DCA to a volume of 100 mL/well. […] On day 10, 9) cells are frozen down to a concentration of 100×10^6 cells/mL. Standard T Cell Growth Media includes: 930 mL X-VIVO®-15 cell medium, 50 ml Human AB Serum, 10 ml 100× GlutaMAX® supplement, and 10 mL 1M HEPES.\nFMC63 (human CD19 targeted CAR) human T cells were generated in the presence or absence of DCA. These cells were used to treat mice bearing A549 lung cancer tumors that were engineered to express hCD19.\nControls were prepared and human anti-CD19 CAR-T cells were cultured as described above. Metabolic flux rate experiments measuring OCR were also performed as described above."}, "T cells [6]": {"test_system": "T cells", "test": "Mitochondrial mass by MitoTracker FM in T cells cultured in DCA", "format": "cell-based, mouse", "settings": "after culture in 5 mM DCA, FIG. 4E"}, "EGFR BBz CAR-T cells": {"test_system": "EGFR BBz CAR-T cells", "test": "Metabolic flux rate experiments (OCR, ECAR) in EGFR BBz CAR-T cells expanded with DCA", "format": "cell-based", "settings": "for OCR analysis (metabolic phenotype): FIG. 9A; for ECAR analysis (metabolic phenotype): FIG. 9B", "protocol": "Immunodeficient mice with a solid tumor (unmodified A549) were treated with adoptively transferred EGFR BBz CAR T cells that were expanded either in the presence or absence of DCA.\nFIGS. 9A-9C depict metabolic flux rate experiments and flow cytometry measurements, showing that DCA can metabolically enhance a solid-tumor targeted CAR.\nThe UTD control was prepared as described above. Metabolic flux rate experiments and T cell preparation were performed as described above."}, "T cells [7]": {"test_system": "T cells", "test": "Cytokine synthesis on restimulation after switch to low or high nutrient conditions", "format": "cell-based", "from_the_text": "FIG. 15A is a schematic of the experimental protocol for FIGS. 15B and 15C."}, "human T cells": {"test_system": "human T cells", "test": "Metabolic flux rate experiments (OCR, SRC) in human T cells expanded in DCA", "format": "cell-based", "protocol": "Metabolic flux rate experiments were performed to determine whether human T cells expanded in DCA show improved mitochondrial respiratory capacity. This example identically replicates the methods described in Example 3, except human T cells were used (derived from human healthy donor blood).\nMetabolic flux rate measurements were performed using the CellDoctor™ device and methods described above. The CellDoctor™ device was configured to measure oxygen consumption rate (OCR) and extracellular acidification rate (ECAR), corresponding to proton flux, of cells that are adherent to the bottom of 24 well microplates. As described above, flux rate experiments were performed in a human T cell line expanded in either 5 mM DCA or a control group without DCA. FIG. 6A illustrates the use of an activation step (CD3/CD28) for 48 hours and a culturing step (Ctrl/DCA) for 10 days as described in Example 2."}, "[8]": {"settings": "5 mM DCA relative to UTD control"}, "[9]": {"settings": "10 mM DCA relative to UTD control"}},
  "data": [
    {"compound": "O=C(O)C(Cl)Cl", "note": "[DCA, dichloroacetic acid]", "values": [
      {"measurement": "OCR at serial time points (metabolic phenotype)", "setting": "[1]; 5 mM DCA relative to TIL control", "value": "superior metabolic phenotype"},
      {"measurement": "OCR at serial time points (metabolic phenotype)", "setting": "[1]; 10 mM DCA relative to TIL control", "value": "superior metabolic phenotype"},
      {"measurement": "OCR after sequential injection of FCCP and 2DG", "setting": "T cells [2]; T cells expanded in 5 mM DCA vs control cells, FIG. 4A", "value": "OCR increased"},
      {"measurement": "increase in OCR over baseline", "setting": "T cells [2]; T cells expanded in 5 mM DCA, FIG. 4B", "value": "at least 30%"},
      {"measurement": "increase in ECAR over baseline", "setting": "T cells [2]; T cells expanded in 5 mM DCA, FIG. 4C", "value": "at least 10 mpH/min"},
      {"measurement": "T cell survival", "setting": "T cells [3]; T cells cultured in 5 mM or 10 mM DCA for 10 days vs 0 mM DCA", "value": "significantly increased"},
      {"measurement": "expression of the anti-apoptotic factor BCL2", "setting": "T cells [3]; T cells cultured in DCA for 10 days, FIG. 3", "value": "enhanced expression"},
      {"measurement": "cytokine production (IFN-gamma and TNF-alpha)", "setting": "[4]", "value": "increase in cytokine production"},
      {"measurement": "ratio of PD-1 negative T cells to PD-1 positive T cells", "setting": "[4]", "value": "increasing ratio"},
      {"measurement": "ratio of Tim-3 negative T cells to Tim-3 positive T cells", "setting": "[4]", "value": "increasing ratio"},
      {"measurement": "OCR at serial time points (metabolic phenotype)", "setting": "[5]", "value": "superior metabolic and therapeutic phenotype"},
      {"measurement": "mitochondrial mass (MitoTracker FM)", "setting": "T cells [6]", "value": "increased"},
      {"measurement": "OCR analysis (metabolic phenotype)", "setting": "EGFR BBz CAR-T cells; [8]", "value": "superior metabolic phenotype"},
      {"measurement": "ECAR analysis (metabolic phenotype)", "setting": "EGFR BBz CAR-T cells; [8]", "value": "superior metabolic phenotype"},
      {"measurement": "OCR analysis (metabolic phenotype)", "setting": "EGFR BBz CAR-T cells; [9]", "value": "superior metabolic phenotype"},
      {"measurement": "ECAR analysis (metabolic phenotype)", "setting": "EGFR BBz CAR-T cells; [9]", "value": "superior metabolic phenotype"},
      {"measurement": "cytokine synthesis when restimulated after expansion", "setting": "T cells [7]; cells cultured with DCA for 7 days, then low or high nutrient conditions for 14 hours, FIG. 15B-15C", "value": "more proficient at synthesizing cytokines"},
      {"measurement": "resistance to stress in low nutrient conditions", "setting": "T cells [7]; low nutrient: 1 mM glucose+0 mM pyruvate, 14 hours", "value": "more resistant to stress"},
      {"measurement": "Spare Respiratory Capacity (SRC, OCRmax-OCRbasal)", "setting": "human T cells; human T cells expanded in 5 mM DCA versus control, FIG. 6D", "value": "at least 60"},
      {"measurement": "increase in OCR over baseline", "setting": "human T cells; human T cells expanded in 5 mM DCA, FIG. 6C", "value": "at least 20 pmol/min"},
      {"measurement": "OCR over time", "setting": "human T cells; human T cells, CD3/CD28 48 hours then 5 mM DCA 10 days vs control, FIG. 6B", "value": "dramatic increase"}
    ]}
  ]
}
